Test system: dihydropyrimidine dehydrogenase (DPD)
Experiment: not given
Design: method as in PMID 9830621, PMID 31756363
Settings: cited from earlier work
For `O=c1[nH]cc(F)c(=O)[nH]1` [5-FU, 5-Fluorouracil], the “catabolic degradation in the liver by DPD” value is listed as “up to 85%”.

Target: T1, recombinant human thymidylate synthase (hTS) (Homo sapiens, UniProt P04818)
T1 construct: His tag (N); purchased Abcam ab95378
T1 sequence (P04818 whole entry): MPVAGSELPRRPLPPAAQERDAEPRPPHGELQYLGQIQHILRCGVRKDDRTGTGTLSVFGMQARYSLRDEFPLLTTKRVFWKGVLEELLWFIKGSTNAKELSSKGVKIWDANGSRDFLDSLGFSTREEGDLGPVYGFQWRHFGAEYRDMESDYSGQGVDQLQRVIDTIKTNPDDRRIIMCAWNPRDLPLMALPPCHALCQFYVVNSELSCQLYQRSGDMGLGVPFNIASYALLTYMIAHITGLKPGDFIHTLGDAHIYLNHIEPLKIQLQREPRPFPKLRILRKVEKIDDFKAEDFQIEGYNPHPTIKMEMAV
Experiment: cell-free human thymidylate synthase (hTS) inhibition assay
Format: biochemical
Settings: 0.84 μM hTS, 50 μM dUMP, 250 μM mTHF, DHF formation at 340 nm, room temperature, pH 7.5
Procedure: This assay measures TS-catalyzed conversion of dUMP and mTHF to dTMP and dihydrofolate (DHF), the latter of which uniquely absorbs strongly at 340 nm (Figures S1 and S2). […] Concentration–response curves were constructed by plotting the normalized reaction rates (calculated using data from the first 100 s after reaction initiation) versus log[inhibitor].
The final concentrations of hTS, dUMP, and mTHF in the reaction systems were 0.84 μM, 50 μM, and 250 μM, respectively. The reaction rates were determined by following the change in the optical absorbance at 340 nm, which corresponded to the formation of the coproduct, DHF.
Human Thymidylate Synthase Inhibition Assay
Recombinant human thymidylate synthase (hTS) was purchased from Abcam (ab95378). The protein was
His-tagged (N-terminal) and >95% pure by SDS-PAGE according to the vendor. dUMP (disodium salt)
(F3503), 5,10-methylenetetrahydrofolate (mTHF, calcium salt , folitixorin calcium ) was purchased from
Boc Sciences (B0084-007873), and all were used without further purification. The cell-free functional hTS
assay protocol was modified from literature procedures :
Inhibition assays were performed using a BioTek Synergy Neo2 plate reader equipped with a Xenon flash
lamp and a photodiode array detector. The hTS reaction was conducted at room temperature in a buffer
solution (pH 7.5) containing 50 mM Tris -HCl, 1 mM EDTA, 25 mM MgCl 2, and 5 mM HCHO. The
reaction system (175 μL total volume, 1 cm optical path lengt h) contained 50 μM dUMP (primary
substrate), 250 μM mTHF (co-substrate and enzyme cofactor), 0.84 μM hTS (enzyme), and decreasing
Formation of the co -product, dihydrofolate, was monitored at 340 nm. Reaction rates were
calculated by plotting t he absorbance at 340 nm against the reaction time and performing linear regression
analysis to determ ine the slope. The reaction rates at different inhibitor concentrations were normalized to
the reaction rate determined in the absence of inhibitor (100% enzymatic activity). Concentration-response
curves were constructed by plotting t he resulting mean % enzymatic activity values (from at least three
independent experiments) against log[inhibitor]. IC50 values were then calculated using non -linear
regression (four -parameter logistic equation, see Equation 1 below) in the GraphPad Prism v.9 software.
Equation 1: Y = Ymin + (Ymax – Ymin) / [1 + 10((logIC50 – X) × Hill Slope)]
`C[C@@H](OP(=O)(O)O)[C@H]1O[C@@H](n2cc(F)c(=O)[nH]c2=O)C[C@@H]1O` [Compound 1, 5′(R)-CH3 FdUMP] gave an IC50 of 1210 nM. For `C[C@H](OP(=O)(O)O)[C@H]1O[C@@H](n2cc(F)c(=O)[nH]c2=O)C[C@@H]1O` [Compound 2, 5′(S)-CH3 FdUMP], the IC50 was > 20000 nM. With `CC(C)(OP(=O)(O)O)[C@H]1O[C@@H](n2cc(F)c(=O)[nH]c2=O)C[C@@H]1O` [Compound 3, 5′-gem-(CH3)2 FdUMP] the IC50 was > 20000 nM. In the case of `O=c1[nH]c(=O)n([C@H]2C[C@H](O)[C@@H]([C@H](OP(=O)(O)O)C(F)(F)F)O2)cc1F` [Compound 4, 5′(S)-CF3 FdUMP], the IC50 is reported as 1240 nM. For `O=c1[nH]c(=O)n([C@H]2C[C@H](O)[C@@H]([C@@H](OP(=O)(O)O)C(F)(F)F)O2)cc1F` [Compound 5, 5′(R)-CF3 FdUMP], the IC50 was > 20000 nM.
